Assay results reported in paper PMC4457528, “Identification of Novel Small Molecule Inhibitors of Oncogenic RET Kinase” (PLoS ONE, 2015).

Key:
Test in all cases: KinomeScan kinase panel, single concentration 10 µM
Assay type in all cases: binding
KinomeScan kinase panel [1] = target: T1, KinomeScan kinase panel (Homo sapiens, UniProt P42685); conditions: FRK, 10 µM; read-out: score (%)
T1 construct: purchased DiscoveRx (KinomeScan)

KinomeScan kinase panel [2] = target: T2, KinomeScan kinase panel (Homo sapiens, UniProt P29320); conditions: EPHA3, 10 µM; read-out: score (%)
T2 construct: purchased DiscoveRx (KinomeScan)
T2 sequence (P29320 21-983): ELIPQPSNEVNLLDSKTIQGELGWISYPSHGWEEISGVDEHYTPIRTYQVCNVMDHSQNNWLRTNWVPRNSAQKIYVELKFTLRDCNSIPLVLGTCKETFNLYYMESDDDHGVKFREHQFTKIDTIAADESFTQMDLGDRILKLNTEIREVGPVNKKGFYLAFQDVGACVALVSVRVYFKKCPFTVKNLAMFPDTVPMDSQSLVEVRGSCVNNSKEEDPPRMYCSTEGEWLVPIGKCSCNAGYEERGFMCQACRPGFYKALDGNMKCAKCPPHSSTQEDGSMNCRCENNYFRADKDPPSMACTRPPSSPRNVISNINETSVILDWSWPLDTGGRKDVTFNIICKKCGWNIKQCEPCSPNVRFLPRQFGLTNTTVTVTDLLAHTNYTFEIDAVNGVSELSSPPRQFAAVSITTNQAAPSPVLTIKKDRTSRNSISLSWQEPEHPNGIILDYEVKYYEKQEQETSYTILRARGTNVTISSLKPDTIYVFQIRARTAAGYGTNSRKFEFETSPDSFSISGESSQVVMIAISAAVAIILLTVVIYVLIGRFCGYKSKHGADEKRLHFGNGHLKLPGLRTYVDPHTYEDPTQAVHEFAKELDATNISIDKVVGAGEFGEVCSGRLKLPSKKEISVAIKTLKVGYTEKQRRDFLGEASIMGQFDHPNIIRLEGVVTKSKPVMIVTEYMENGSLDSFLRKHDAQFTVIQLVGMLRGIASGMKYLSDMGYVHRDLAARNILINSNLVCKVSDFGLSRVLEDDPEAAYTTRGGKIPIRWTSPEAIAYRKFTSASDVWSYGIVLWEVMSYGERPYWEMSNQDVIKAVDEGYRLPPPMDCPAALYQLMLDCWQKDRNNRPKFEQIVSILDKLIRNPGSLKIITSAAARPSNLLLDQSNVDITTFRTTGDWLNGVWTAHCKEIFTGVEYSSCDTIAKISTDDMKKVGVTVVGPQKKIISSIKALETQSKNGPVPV

KinomeScan kinase panel [3] = target: T3, KinomeScan kinase panel (Homo sapiens, UniProt P36888, K663Q); conditions: FLT3(K663Q), 10 µM; read-out: score (%)
T3 construct: purchased DiscoveRx (KinomeScan)
T3 sequence (P36888 27-993 K663Q): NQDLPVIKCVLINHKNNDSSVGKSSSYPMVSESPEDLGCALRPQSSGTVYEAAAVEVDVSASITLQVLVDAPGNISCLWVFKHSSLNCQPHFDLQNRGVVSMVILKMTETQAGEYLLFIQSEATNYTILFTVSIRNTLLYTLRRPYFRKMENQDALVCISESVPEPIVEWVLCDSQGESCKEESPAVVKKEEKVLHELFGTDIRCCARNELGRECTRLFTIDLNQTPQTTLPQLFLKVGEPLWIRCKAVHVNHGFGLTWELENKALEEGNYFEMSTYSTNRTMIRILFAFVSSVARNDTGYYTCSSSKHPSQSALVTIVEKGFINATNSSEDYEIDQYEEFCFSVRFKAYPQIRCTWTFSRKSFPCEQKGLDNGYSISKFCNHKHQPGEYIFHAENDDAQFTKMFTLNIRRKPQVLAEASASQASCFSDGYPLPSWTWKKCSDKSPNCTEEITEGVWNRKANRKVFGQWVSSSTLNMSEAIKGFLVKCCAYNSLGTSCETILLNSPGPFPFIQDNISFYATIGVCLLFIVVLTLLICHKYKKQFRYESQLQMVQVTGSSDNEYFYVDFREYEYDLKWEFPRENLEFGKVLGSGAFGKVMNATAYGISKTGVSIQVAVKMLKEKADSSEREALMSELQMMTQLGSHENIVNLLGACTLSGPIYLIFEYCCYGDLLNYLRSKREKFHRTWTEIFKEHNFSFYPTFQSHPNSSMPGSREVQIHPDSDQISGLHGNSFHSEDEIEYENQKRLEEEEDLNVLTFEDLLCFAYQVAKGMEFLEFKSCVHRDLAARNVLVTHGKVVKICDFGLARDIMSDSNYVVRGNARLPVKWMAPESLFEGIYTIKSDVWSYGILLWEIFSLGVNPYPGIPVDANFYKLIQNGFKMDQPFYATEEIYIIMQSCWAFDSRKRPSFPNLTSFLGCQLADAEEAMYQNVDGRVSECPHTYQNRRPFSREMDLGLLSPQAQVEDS

KinomeScan kinase panel [4] = target: T4, KinomeScan kinase panel (Homo sapiens, UniProt Q8TD19); conditions: NEK9, 10 µM; read-out: score (%)
T4 construct: purchased DiscoveRx (KinomeScan)
T4 sequence (Q8TD19 1-979): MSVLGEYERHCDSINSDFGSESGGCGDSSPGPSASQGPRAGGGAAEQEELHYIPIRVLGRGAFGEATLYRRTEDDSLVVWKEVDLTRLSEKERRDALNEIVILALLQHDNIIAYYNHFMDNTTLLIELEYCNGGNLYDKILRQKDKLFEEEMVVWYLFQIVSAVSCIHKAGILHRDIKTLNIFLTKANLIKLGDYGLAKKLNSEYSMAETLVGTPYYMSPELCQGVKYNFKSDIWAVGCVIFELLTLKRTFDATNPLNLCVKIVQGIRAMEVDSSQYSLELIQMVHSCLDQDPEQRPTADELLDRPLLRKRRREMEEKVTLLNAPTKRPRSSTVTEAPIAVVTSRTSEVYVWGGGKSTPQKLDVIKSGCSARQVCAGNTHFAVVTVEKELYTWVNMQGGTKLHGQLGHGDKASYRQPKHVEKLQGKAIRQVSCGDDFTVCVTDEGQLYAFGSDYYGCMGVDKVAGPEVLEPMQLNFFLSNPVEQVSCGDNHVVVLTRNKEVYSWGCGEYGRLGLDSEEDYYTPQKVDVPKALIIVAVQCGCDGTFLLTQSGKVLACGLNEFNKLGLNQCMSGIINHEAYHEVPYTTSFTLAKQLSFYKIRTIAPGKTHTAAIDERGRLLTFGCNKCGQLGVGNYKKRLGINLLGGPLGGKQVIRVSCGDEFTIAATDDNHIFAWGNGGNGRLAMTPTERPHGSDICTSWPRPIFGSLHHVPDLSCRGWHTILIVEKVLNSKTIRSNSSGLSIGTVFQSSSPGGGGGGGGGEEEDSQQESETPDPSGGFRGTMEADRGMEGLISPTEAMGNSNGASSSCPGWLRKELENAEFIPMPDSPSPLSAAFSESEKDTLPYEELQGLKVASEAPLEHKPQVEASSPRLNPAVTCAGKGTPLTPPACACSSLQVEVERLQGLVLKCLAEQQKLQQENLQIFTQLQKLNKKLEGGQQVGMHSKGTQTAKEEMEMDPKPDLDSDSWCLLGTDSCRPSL

T1 sequence (P42685 whole entry): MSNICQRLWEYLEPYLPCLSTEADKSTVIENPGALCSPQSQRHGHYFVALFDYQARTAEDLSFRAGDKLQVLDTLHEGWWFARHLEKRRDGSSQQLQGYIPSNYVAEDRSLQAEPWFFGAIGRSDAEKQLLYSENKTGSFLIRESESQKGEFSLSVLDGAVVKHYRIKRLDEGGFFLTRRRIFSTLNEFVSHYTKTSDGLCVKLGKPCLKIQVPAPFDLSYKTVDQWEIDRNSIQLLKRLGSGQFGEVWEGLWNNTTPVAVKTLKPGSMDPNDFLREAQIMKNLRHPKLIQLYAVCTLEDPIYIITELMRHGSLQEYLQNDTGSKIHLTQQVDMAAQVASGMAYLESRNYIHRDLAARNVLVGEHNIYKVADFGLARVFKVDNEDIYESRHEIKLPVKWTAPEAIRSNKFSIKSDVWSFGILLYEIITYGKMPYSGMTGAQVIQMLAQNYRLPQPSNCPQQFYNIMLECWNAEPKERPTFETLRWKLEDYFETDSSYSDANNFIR

| SMILES | remaining binding at 10 µM (KinomeScan kinase panel [1]) [%] | remaining binding at 10 µM (KinomeScan kinase panel [2]) [%] | remaining binding at 10 µM (KinomeScan kinase panel [3]) [%] | remaining binding at 10 µM (KinomeScan kinase panel [4]) [%] |
| --- | --- | --- | --- | --- |
| CCN1CCN(Cc2ccc(NC(=O)c3ccc(C)c(NC(=O)c4cncc(-c5cccs5)c4)c3)cc2C(F)(F)F)CC1 [ALW-II-41-27] | 0.2 | 7.6 | 1 | > 30 |
| CCN1CCN(Cc2ccc(NC(=O)c3ccc(C)c(/C=C/c4cnc5[nH]ccc5c4Cl)c3)cc2C(F)(F)F)CC1 [HG-6-63-01, (E)-3-(2-(4-chloro-1H-pyrrolo[2,3-b]pyridin-5-yl)vinyl)-N-(4-((4-ethylpiperazin-1-yl)methyl)-3-(trifluoromethyl)phenyl)-4-methylbenzamide] | 0.55 | 11 | 0 | 28 |
| CCN1CCN(Cc2ccc(NC(=O)c3ccc(C)c(C#Cc4cccnc4)c3)cc2C(F)(F)F)CC1 [XMD15-44] | 0.15 | 0.85 | 0 | 41 |
